Test results published in patent publication US10337049B2, “Universal methylation profiling methods” (THE TRUSTEES OF COLUMBIA UNIVERSITY IN THE CITY OF NEW YORK, priority 2013, dated 2019).

Legend:
[1] = Photo-irradiation of 16mer oligonucleotide, single base extension-MS analysis; type: physicochemical; settings: primer 5′-TGCCGCACTC-3′, MS of elongated primer
Protocol: After HPLC purification, the modified 16mer was characterized by MALDI-TOF MS yielding a peak with MW of 5001, equal to the calculated mass. Then photo-irradiation of oligo [NT] ID NO: 1) was conducted to convert C* to a U analog. The outcome for conversion of C* in DNA was detected by using single base extension-MS analysis (FIG. 7). In this analysis, the photo-irradiated oligonucleotide was annealed with a primer […] 2964) (SEQ ID NO: 2), then incubated with ddNTPs and DNA polymerase. With the aid of DNA polymerase, one of the 4 ddNTPs can be selectively incorporated onto the 3' end of the primer. Photo-chemistry induced conversion of C to U should be able to direct the incorporation of ddA, resulting in an elongated primer with a MW of 3261, otherwise ddG should be incorporated giving an elongated primer of MW 3277. […] In the control experiment, photo-irradiation of the unmodified counterpart [NT] ID NO: 3) was conducted under the same conditions. […] We also measured possible photoirradiation-induced DNA damage. Under the conditions we used (300 nm, over 10 h) no DNA damage was observed.

[2] = Photo-irradiation of 5 position-modified deoxycytidine at about 300 nm, HPLC/UV/MS monitoring; type: physicochemical; settings: for photochemical conversion to U analog on photo-irradiation: about 300 nm, aqueous solution, up to 12 h
Protocol: Photo-irradiation of 5-All-OMC at about 300 nm was then conducted in aqueous solution for up to 12 h, and the reaction products separated and monitored by HPLC and UV absorption.
Both C and 5-methyl-C remain intact after photo-irradiation under the same conditions. […] To further verify this conversion, 5-All-OMU was synthesized and characterized. […] The photochemically generated 5-All-OMU was also characterized by ^1HNMR.

[3] = Photoirradiation of 5-PhAll-OMC with 350 nm light in the presence of triplet sensitizer thioxanthone, HPLC analysis; type: physicochemical; settings: 20 min
Text: 5-PhAll-OMC was irradiated with 350 nm light in the presence of the triplet photosensitizer thioxanthone (TX).
The new product was found 1 mass unit higher than the starting material 5-PhAll-OMC, indicating possible U analog was generated from 5-PhAll-OMC. […] The ^13C NMR spectra, shown in FIG. 27, unambiguously confirm the formation of a [2+2] cycloadduct in either straight or cross configuration.

[4] = Laser flash photolysis, triplet energy transfer from thioxanthone; settings: 355 nm pulsed laser, argon saturated acetonitrile, quencher 0 to 0.25 mM
[5] = test system: pCa17 plasmid; experiment: in vivo functional assay / restriction protection assay of M.SssI variants (HpaII digestion of isolated plasmid); settings: 200 ng plasmid, 1 U HpaII, 37° C., 1 hour, agarose gel

## 5′-TACGACGAGTGCGGCA-3′: unmodified counterpart 16mer, control (DNA, backbone not given here)
[1]
  ddNTP incorporated in single base extension after photo-irradiation of template: ddGTP

## C=CCOCc1cn([C@H]2C[C@H](O)[C@@H](CO)O2)c(=O)nc1N [5-All-OMC, 5-allyloxymethyl-dC]
[2]
  photochemical conversion to U analog on photo-irradiation: high efficiency
[2]; after 3 h of irradiation
  HPLC profile during photo-irradiation: the main peak is the starting material
[2]; after 12 h photo-irradiation
  HPLC profile during photo-irradiation, starting material: mostly consumed

## Cc1c[nH]c(=O)nc1N [5-methyl-C, 5-methylcytosine]
[2]
  photochemical conversion to U analog on photo-irradiation: remain intact

## Nc1cc[nH]c(=O)n1 [C, Cytosine]
[1]
  ddNTP incorporated in single base extension after photo-irradiation of template: ddATP
[2]
  photochemical conversion to U analog on photo-irradiation: remain intact

## O=c1c2ccccc2sc2ccccc12 [TX, thioxanthone]
[3]
  concentration of the sensitizer after photoirradiation: remained unchanged

## OCC=Cc1ccccc1 [cinnamyl alcohol]
[4]
  rate constant of quenching of thioxanthone triplet (triplet energy transfer), kq: 7.8e+09 M⁻¹ s⁻¹

## wild-type: wild type CpG specific DNA methyltransferase M.SssI expressed from pCAL7
[5]
  resistance of isolated M.SssI expressing plasmid to HpaII digestion: completely resistant
